Source: article PMC4000412, “Novel LHRH-receptor-targeted cytolytic peptide, EP-100: first-in-human phase I study in patients with advanced LHRH-receptor-expressing solid tumors” (Cancer Chemotherapy and Pharmacology, 2014)
Entries after “also recorded” stand apart in the source; their conditions may differ. Like-named read-outs stand apart in the source and are kept apart here. Peptide text beside a SMILES is read from it.

Experiments:
[1] = Antidrug antibodies (anti-EP-100) ELISA in human serum; assay type: in vivo; conditions: any dose level
Description: ADA were evaluated using an enzyme linked immunoassay validated for the detection of antibodies against EP-100 (anti-EP-100) (Icon plc, formerly Prevalere Life Sciences, LLC, Whitesboro, NY). Antibodies were produced in rabbits against the lytic peptide moiety of EP-100 (APC 338983). Antibodies against EP-100 in human serum were detected by coating 96-well microtiter plates with peptide 338983. At least two wells from each plate were coated with human IgG at 500 ng/mL as controls for the goat antihuman horseradish peroxidase detector. Rabbit anti-EP-100 polyclonal antibody was used as a positive control. The plates were washed, and a mixture of goat antirabbit HRP and goat antihuman HRP and tetramethylbenzidine peroxide substrate were added, and the color development determined in a spectrophotometer at 450 and 620 nm wavelength. The developed color was proportional to the amount of anti-EP-100 antibody in the sample. The anti-EP-100 antibodies in serum were quantified from a calibration curve prepared from the positive control and ranged from 500 to 32,000 ng/mL in 100 % human serum.

[2] = test system: advanced LHRH-receptor-expressing solid tumors; experiment: Antitumor activity by RECIST version 1.1, tumor biomarkers and CTC; assay type: in vivo, human
Description: A history and physical examination were conducted pre-study and before every cycle. A complete blood count, serum electrolytes and chemistries were evaluated pre-study and then weekly. Tumor response or progression was assessed by imaging studies at baseline and after every 2 cycles. RECIST version 1.1 criteria were used to assess response.
FSH and LH levels as well as testosterone in men and estradiol levels in women were obtained on Days 1, 8, 15 and 22 within 24 h prior to dosing. Testosterone and estradiol levels were measured on Day 1 only after Cycle 1 and at off study assessment. Blood was collected for circulating tumor cells (CTC) prior to dosing on Day 1 of the first cycle. Patients with positive CTC at baseline also had blood collected for CTC analysis prior to dosing on Day 1 of each subsequent cycle. Additional studies included plasma cortisol, adrenocorticotropin (ACTH), thyroxine (T4) and thyroid-stimulating hormone (TSH) and blood for tumor specific biomarker analysis (at investigator’s discretion), all obtained prior to Day 1 dosing with each cycle and at off study assessment. Samples for antidrug antibodies (ADA) were collected on Day 1 of Cycle 1 and then on Day 1 of every odd cycle.

[3] = test system: human cancer cell lines expressing the LHRH receptor; conditions: cited from earlier work
From the text: EP-100 is a synthetic 28 amino acid consisting of the LHRH natural ligand joined to an 18 amino acid cationic α-helical lytic peptide (CLIP-71) without a linker. LHRH delivers the lytic peptide to cancer cells via specific binding to cell-surface LHRH receptors. Although EP-100’s exact mechanism of action has not yet been resolved, cancer cell membrane surface characteristics are believed to play a critical role.

[4] = cited from earlier work; for histamine release (clinical signs: swelling, redness or raised areas): pre-clinical studies; for well tolerated dose (as high as): repeated dose, ref Esperance data on file
Description: Clinical signs of histamine release were eliminated in a female dog and lessened in a male dog when diphenhydramine was administered. Therefore, histamine release may cause IRDRs, but it remains unclear how EP-100 triggers IRDRs in humans and why the reaction is seen in skin only. Among patients experiencing IRDRs, hematolo ...

[5] = ref Esperance data on file, cited from earlier work
Description: A conservative first-in-human starting dose of 0.6 mg/m^2 was chosen, based on the repeat-dose toxicity studies in dogs (which appeared to be the most sensitive species). The initial dose schedule of one 30 min infusion weekly was pre ...

CC(C)C[C@H](NC(=O)CNC(=O)[C@H](Cc1ccc(O)cc1)NC(=O)[C@H](CO)NC(=O)[C@H](Cc1c[nH]c2ccccc12)NC(=O)[C@H](Cc1c[nH]cn1)NC(=O)[C@@H]1CCC(=O)N1)C(=O)N[C@@H](CCCNC(=N)N)C(=O)N1CCC[C@H]1C(=O)NCC(=O)N[C@@H](CCCCN)C(=O)N[C@@H](Cc1ccccc1)C(=O)N[C@@H](C)C(=O)N[C@@H](CCCCN)C(=O)N[C@@H](Cc1ccccc1)C(=O)N[C@@H](C)C(=O)N[C@@H](CCCCN)C(=O)N[C@@H](CCCCN)C(=O)N[C@@H](Cc1ccccc1)C(=O)N[C@@H](C)C(=O)N[C@@H](CCCCN)C(=O)N[C@@H](Cc1ccccc1)C(=O)N[C@@H](C)C(=O)N[C@@H](CCCCN)C(=O)N[C@@H](CCCCN)C(=O)N[C@@H](Cc1ccccc1)C(=O)N[C@@H](C)C(=O)N[C@@H](CCCCN)C(=O)O [EP-100] (HELM PEPTIDE1{[Glp].H.W.S.Y.G.L.R.P.G.K.F.A.K.F.A.K.K.F.A.K.F.A.K.K.F.A.K}$$$$V2.0; C-terminus assumed)
antibodies to EP-100 (ADA) [1]: not detected
objective tumor responses (RECIST version 1.1) ([2]; 37 patients, EP-100 single agent): No complete or partial tumor responses; also recorded: No objective tumor responses
treatment-related change in tumor biomarkers (CA-125 or PSA) or CTC values ([2]; patients): no treatment-related decreases
clinical benefit: patients with stable disease for 16 weeks or longer ([2]; seven of 37 patients, EP-100 single agent): 19%
release of cell-death proteases from cells ([3]; in vitro, low micromolar concentrations): released from cells within minutes
incubation time to complete cell lysis ([3]; in vitro): 1 h
in vitro activity level ([3]; various human cancer cell lines from solid tumors and hematological malignancies expressing the LHRH receptor, ref Esperance data on file, 37): sub-micromolar
histamine release (clinical signs: swelling, redness or raised areas) ([4]; beagle dogs): may trigger histamine release
histamine release (clinical signs: swelling, redness or raised areas) ([4]; mice): may trigger histamine release
well tolerated dose (as high as) ([4]; dogs): 2.0 mg/kg
well tolerated dose (as high as) ([4]; mice): 2.0 mg/kg
highest non-severely toxic dose ([5]; repeat-dose animal studies): 2.0 mg/kg/dose
pharmacologic effect on pituitary LH and FSH ([5]; some animals, with reduction in uterine and epididymal weights): reduction in pituitary production
